Key:
plasma albumin = details: cited from earlier work
[1] = 6 h benchtop (early preanalytical) stability in whole blood and in plasma; type: in vitro ADME, human; details: ambient temperature (25 °C), up to 6 h
Protocol: Six independent plasma samples were processed. The reference solutions were 140 µL acetonitrile-water 4:1 (v/v) mixtures spiked as described above. The mixtures and the reference solutions were subsequently diluted with 90 µL water. Internal standard-corrected matrix factors were calculated as the peak area ratios of the analytes and the internal standards in prepared plasma versus those in a neat solution. In the stability studies, the recoveries of IBR and DIB were calculated as the ratio of the concentrations measured after incubation and those measured at the beginning of the study.
The preanalytical stability of IBR and DIB was evaluated by adding 20 µL methanol solutions containing 500 ng/mL IBR and DIB to two 1.0 mL aliquots of blood freshly drawn into phlebotomy tubes containing K3-EDTA. Three samples, 3 mL each, were taken from three healthy volunteers (manuscript authors G.B.K., I.V. and Z.K.). One of the fractions was centrifuged at 3000 rpm and 10 °C for 10 min immediately after spiking the analytes, and plasma was separated. Both spiked whole blood and the separated plasma were kept at ambient temperature for 6 h. […] Fifty microliters was drawn from the supernatant of the whole blood sample as well as from the plasma, and was processed as described in Section 2.2.

[2] = plasma kept at ambient temperature for 24 h; ref 24 (Huynh et al.); cited from earlier work
[3] = cited from earlier work
[4] = cited from earlier work; remark: listed apart in the source

For `C=CC(=O)N1CCC[C@@H](n2nc(-c3ccc(Oc4ccccc4)cc3)c3c(N)ncnc32)C1` [Ibrutinib, 1-[(3R)-3-[4-Amino-3-(4-phenoxyphenyl)-1H-pyrazolo[3,4-d]pyrimidin-1-yl]-1-piperidinyl]-2-propen-1-one], the “affinity to plasma albumin” value (plasma albumin) is given as greater than 95%, the recovery at 9.8 ng/mL ([1]; human, plasma (separated from spiked K3-EDTA whole blood), plasma, all analyses) is given as no less than 85% and the “cases with recoveries lower than 85% (of fifteen analyses)” value ([1]; whole blood) is given as “two”. For the same compound, the recoveries [2] was 46.7–72.9%, the solubility in water [3] was “poor” and the oral bioavailability [4] was “low”.

Reference: publication PMC9331678 (Molecules, 2022)
